Where “and” joins values, the source holds several entries; their conditions need not be identical. Identical values can stand only once. Peptide text beside a SMILES is read from it.
Assays:
[1] = system: MRPA0108 biofilms; assay: Confocal laser scanning microscopy of biofilms (LIVE/DEAD staining); assay type: cell-based, Pseudomonas aeruginosa; details: 24 h; for percentage of dead/live cells in biofilm: SYTO9/PI, control 8.7%
Experimental: Biofilms of MRPA0108 were visualized by confocal microscopy. Mid-log growth-phase bacteria were diluted to 1 × 10^7 CFU/ml. […] LB liquid medium and erythromycin were used as negative and positive controls, respectively. After incubation, the supernatant was removed, and the slides were washed and stained in a dark environment for 30 min using a LIVE/DEAD BacLight^TM Bacterial Viability Kit (Invitrogen, Life Technologies, Shanghai, China). The slides were washed three times and imaged with a confocal laser scanning microscope (LSM 710, Carl Zeiss, Germany) with excitation/emission wavelengths of 480/500 and 490/635 nm for SYTO9 and propidium iodide (PI), respectively. SYTO9 was used to indicate live bacteria, and PI was used to mark dead bacteria.

[2] = system: OprD gene expression in MRPA0108; assay: Real-time qPCR of porin gene OprD; assay type: cell-based, Pseudomonas aeruginosa; details: peptide at its MIC (I1W 6.25 μM, L12W 25 μM); Supplementary Figure S2
Experimental: Mid-logarithmic (mid-log) growth-phase MRPA0108 cells (1 × 10^8 CFU/ml) were incubated with the different concentrations of peptide at 37°C for 18 h. The bacterial cells were collected by centrifugation at 13,000×g and digested in lysis buffer containing 10 mg/ml lysozyme. Total RNA was isolated by using a TRIzol® Max^TM Kit (Invitrogen, Shanghai, China) according to the manufacturer’s instructions and subsequently reverse transcribed into cDNA using a Prime Script RT Master Mix Kit (Takara, Dalian, China). Real-time PCR was performed in an ABI QuantStudio^TM 5 sequence detection system (Applied Biosystems, United States) using 2 × SYBR Premix Ex Taq II (Solarbio Science and Technology Co., Ltd.). The PCR cycling conditions were as follows: 95°C for 30 s and 40 cycles of 5 s at 95°C, 30 s at 60°C, and 20 s at 72°C. The fold changes calculated according to the comparative cycle threshold (Ct) method were used for quantifying gene expression, normalizing to the expression of the housekeeping gene rpsL. PCR primers, including those for lasA, lasB, rhlA, rhlB, pelA, algD, psl, oprD, oprM, mexA, and mexB, were synthesized by Sangon Biotech (Shanghai, China) and are presented in Supplementary Table S2.

[3] = system: β-lactamase activity in MRPA0108 cells; assay: β-Lactamase activity assay (nitrocefin kit) in treated cells; assay type: cell-based, Pseudomonas aeruginosa; details: compared to control
Experimental: β-lactamase activity was measured by using a β-lactamase assay kit (YIASEN Biotech Co., Ltd., Shanghai, China) according to the manufacturer’s instructions. Briefly, mid-log growth-phase bacteria were diluted to 1 × 10^8 CFU/ml and treated with I1W or L12W at concentrations ranging from 3.13 to 50 μM for 12 h at 37°C. After induction, the cultures were harvested by centrifugation at 5,000 rpm at 4°C, washed three times with PBS buffer (pH 7.2), and then resuspended in the same buffer. The cells were sonicated on ice for 15 min, and the cell lysates containing β-lactamase were collected by centrifugation at 12,000 rpm for 30 min at 4°C. Fifty microliters of the prepared β-lactamase-containing lysates was mixed with 50 μl of assay buffer containing nitrocefin and reacted at room temperature in a dark environment for 20 min. Nitrocefin hydrolysis was measured spectrophotometrically at 490 nm. Concurrently, the total protein content was determined with a Bradford assay using the same supernatant. One milliunit of β-lactamase is defined as 1 nanomole of nitrocefin hydrolyzed per minute per microgram of protein.

[4] = cited from earlier work
Source text: Supplement Table_1.docx, table 1: Table S1 Biological characteristics and antibacterial activities of the Trp-containing antimicrobial peptides (32) | column: Hemolysis (μM)

[5] = system: MRPA0108 cells; assay: Intracellular antibiotic assay by HPLC; assay type: cell-based, Pseudomonas aeruginosa; details: RP-HPLC of cell lysate
Experimental: Mid-log growth-phase bacteria were diluted to 1 × 10^8 CFU/ml and treated with I1W or L12W at concentrations ranging from 3.13 to 50 μM for 12 h at 37°C. After induction, the cultures were harvested by centrifugation at 12,000 rpm for 2 min, washed three times with PBS buffer (pH 7.2), and then incubated with lysozyme (20 mg/ml) at 37°C for 1 h in a water bath. After centrifugation at 12,000 rpm for 5 min, the supernatant of the cell lysates was collected, added to methanol (1:3) and vortexed to precipitate proteins. After recentrifugation at 12,000 rpm for 5 min, the supernatant was measured by using HPLC with a mobile phase of 0.1% trifluoroacetic acid/methanol (92:8, v/v) and a flow rate of 0.7 ml/min.

[6] = range over peptide 3.13 to 50 μM, 12 h 37°C

For `CC[C@H](C)[C@H](NC(=O)[C@H](CCCCN)NC(=O)[C@H](CO)NC(=O)[C@H](CC(C)C)NC(=O)[C@@H](NC(=O)[C@H](CCCCN)NC(=O)[C@H](CCCCN)NC(=O)[C@@H](N)Cc1c[nH]c2ccccc12)[C@@H](C)CC)C(=O)N[C@@H](CCCCN)C(=O)N[C@@H](CCCCN)C(=O)N[C@@H](CC(C)C)C(=O)N[C@@H](CC(C)C)C(=O)N[C@@H](CCCCN)C(N)=O` [I1W] (H-WKKILSKIKKLLK-NH2; N-terminus and C-terminus assumed), the average biofilm thickness ([1]; after treatment with low concentrations of peptide (1 × MIC or 2 × MIC), 37°C, control biofilm 6 μm) was 1.5–2.5 μm and 1.5 μm, the “percentage of dead/live cells in biofilm” value ([1]; peptide at 1 × MIC) was 29.9% and the “percentage of dead/live cells in biofilm” value ([1]; peptide at 2 × MIC) was 47.9%. For the same compound, the “reduction of OprD gene expression” value [2] was 27%, the “effect on β-lactamase activity, peptide alone” value ([3]; peptide alone at concentrations greater than 12.5 μM) was “reduced β-lactamase activity” and the “effect on β-lactamase activity, peptide alone” value ([3]; peptide alone at low concentrations) was “no effect on β-lactamase activity”. For the same compound, the Hemolysis [4] was greater than 500 µM, the “increase of ceftazidime content in MRPA0108 cells” value ([5]; peptide at its MIC) was 19% and the “increase of levofloxacin content in MRPA0108 cells” value ([5]; peptide at its MIC) was 1%. The “increase of piperacillin content in MRPA0108 cells” value ([5]; peptide at its MIC) was 17%, the “increase of ceftazidime content in MRPA0108 cells” value [5, 6] was 7.5-100% and the “increase of levofloxacin content in MRPA0108 cells” value [5, 6] was 0.01–22%. The “increase of piperacillin content in MRPA0108 cells” value [5, 6] was 8–80%.
